The record followed here is ChEMBL document CHEMBL1159320, “Cytotoxic effect (on tumor cells) and in vitro antiviral activity against herpes simplex virus of synthetic spongiane diterpenes” (J Nat Prod, 2002).

In brackets after ≈: the same amount, converted by molar mass. Activity calls are given as the source filed them. The rule behind the calls is not given here. A value given as a limit tells only on which side of the number the result lay.

In one data set the test system is Human alphaherpesvirus 1. The data set is described as follows: Antiviral activity against HSV1 infected in mouse P388 cells. As to conditions: Human alphaherpesvirus 1, P388. It counts as functional, organism-based.
In the next data set the test system is P388. The data set is described as follows: Antitumor activity against mouse P388 cells. It counts as functional, cell-based.
Another data set relates to Vero. Nature of the data set: Cytotoxicity against african green monkey Vero cells by EPTT method. It counts as cell-based. As to conditions: chlorocebus sabaeus.
Another data set deals with Human alphaherpesvirus 2. The data set is described as follows: Antiviral activity against HSV2 infected in human HeP2 ells. It counts as functional.
Data set [1] in a line: Cytotoxicity against pig PS cells. It counts as cell-based, Sus scrofa. The note with it: read-out: ED50 (the source's name).
In data set [2] the test system is HeLa. The data set is described as follows: Cytotoxicity against human HeLa cells after 48 hrs. It counts as functional.
The subject of a further data set is CHO. Nature of the data set: Cytotoxicity against CHO cells after 48 hrs. As to conditions: chinese hamster. It counts as cell-based, Cricetulus griseus.
Data set [3] can be described thus: Cytotoxicity against bovine Bon-Fib cells after 48 hrs. It counts as cell-based, Bos taurus. The note with it: cattle.
The subject of data set [4] is HeLa. Nature of the data set: Cytotoxicity against human HeLa cells after 48 hrs by MTT assay. It counts as functional. Background: Tetrazolium dyes change colour on reduction, which living cells bring about.
The subject of data set [5] is HEp-2. The data set is described as follows: Cytotoxicity against human Hep2 cells after 48 hrs by MTT assay. It counts as functional. As to conditions: HEp-2, 48 h.
A short description of data set [6]: Cytotoxicity against CHO cells after 48 hrs by MTT assay. It counts as cell-based, Cricetulus griseus. The note with it: chinese hamster.
Data set [7] is described as follows: Cytotoxicity against bovine Bon-Fib cells after 48 hrs by MTT assay. It counts as cell-based, Bos taurus. The note with it: cattle.
The next data set concerns L1210. Nature of the data set: Cytotoxicity against mouse L1210 cells. It counts as functional, cell-based.
Another data set concerns KB. The data set is described as follows: Cytotoxicity against human KB cells. It counts as functional, cell-based.
Data set [8] concerns HEp-2. Nature of the data set: Cytotoxicity against human Hep2 cells after 48 hrs. It counts as functional.

`C[C@]12CC(=O)[C@H](O)[C@](C)(CO)[C@@H]1CC[C@@]1(C)c3cocc3CC[C@H]21` [EPISPONGIADIOL]: the results for the IC50 in the data set on Human alphaherpesvirus 1 and in the data set on P388 were 12.5 µg/mL (≈ 37.6 µM) and 8 µg/mL (≈ 24.1 µM), respectively.
On to `CC1(C)CCC[C@]2(C)[C@H]3CC[C@]4(O)C(=O)OC[C@H]4[C@]3(C)CC[C@@H]12`, for which the CC100 with Vero was determined as 56 µg/mL. The same compound gave an Activity in the data set with Human alphaherpesvirus 2 of 28 µg/mL.
For the compound `Nc1nc2c(ncn2COCCO)c(=O)[nH]1` [ACYCLOVIR], the CC100 in the data set with Vero is greater than 600 µg/mL. Besides, the Activity in the data set with Human alphaherpesvirus 2 was determined as 6 µg/mL.
With `CCCC(=O)O[C@@H]1C[C@H]2C(C)(C)CCC[C@]2(C)[C@H]2CC[C@H]3C(=O)O[C@H]4O[C@@H](O)[C@]21[C@H]43`, in [1], the CC50 amounted to 6.5 µg/mL (≈ 15.5 µM).
As for `COC(=O)[C@@H]1CC[C@@H]2[C@@]3(C)CCCC(C)(C)[C@@H]3CC[C@]23C(O)OC[C@H]13` (stereo partly drawn), the CC100 in the data set with Vero is 30 µg/mL; in the data set with HeLa [2], 60 µg/mL; with CHO it was 30 µg/mL; in [3], greater than 120 µg/mL. The result in the data set with Human alphaherpesvirus 2 was inactive. Besides, the CC50 in the data set with HeLa [4] came to 37.6 µg/mL (≈ 107 µM); in the data set on HEp-2 [5] it was 21.8 µg/mL (≈ 62.3 µM). Moreover, the CC50 at 48 h is 24.5 µg/mL (≈ 69.9 µM) in [6] and greater than 120 µg/mL in data set [7].
Compound `CC1(C)CCC[C@]2(C)[C@H]3CCc4cocc4[C@]3(C)CC[C@@H]12` came in with a CC100 in the data set on Vero of 120 µg/mL. In the data set with Human alphaherpesvirus 2, this compound showed an Activity of 60 µg/mL.
The corresponding values for `CC1(C)CCC[C@]2(C)[C@H]3CC=C4C(=O)OC[C@H]4[C@]3(C)CC[C@@H]12` [ISOAGATHOLACTONE] are 40 µg/mL and “inactive”.
The corresponding values for `CC1(C)CCC[C@]2(C)[C@H]3CC[C@H]4C(=O)OC[C@]3(CC[C@@H]12)[C@@H]4CO` are 37.5 µg/mL and 18.7 µg/mL.
In the case of `CC1(C)CCC[C@]2(C)[C@H]3CC[C@H]4C(=O)OC[C@H]4[C@]3(C=O)CC[C@@H]12`, the CC100 in the data set on Vero is 28 µg/mL; with CHO, 20 µg/mL; in data set [3] it was 40 µg/mL. Moreover, the Activity in the data set with Human alphaherpesvirus 2 came to 14 µg/mL. For the same compound, the CC50 with HeLa [4] was 14.2 µg/mL (≈ 44.5 µM); in the data set on HEp-2 [5] it was 9.56 µg/mL (≈ 30 µM). The results for the CC50 at 48 h in data set [6] and in data set [7] were 13.2 µg/mL (≈ 41.3 µM) and 19 µg/mL (≈ 59.6 µM), respectively.
Take `CC1(C)CCC[C@]2(C)[C@H]3CC[C@H]4C(=O)OC5OC[C@H]4[C@@]53CC[C@@H]12`: the CC100 with Vero worked out at 58 µg/mL. Besides, the Activity with Human alphaherpesvirus 2 is 29 µg/mL.
Take `C[C@]12CC(=O)[C@@H](O)[C@](C)(CO)[C@@H]1CC[C@@]1(C)c3cocc3CC[C@H]21` [SPONGIADIOL]: the figures for the IC50 with Human alphaherpesvirus 1 and in the data set on P388 were 0.25 µg/mL (≈ 0.752 µM) and 0.5 µg/mL (≈ 1.5 µM), respectively.
On to `CO[C@H]1CC[C@]2(C)[C@H]3CCc4cocc4[C@]3(C)CC[C@H]2[C@@H]1C`, for which the CC100 is 28 µg/mL with Vero, 18 µg/mL in the data set with HeLa [2], 36 µg/mL in the data set on CHO and 36 µg/mL in data set [3]. Besides, the Activity in the data set on Human alphaherpesvirus 2 was 15 µg/mL. For the same compound, the CC50 with HeLa [4] amounted to 13.6 µg/mL (≈ 44.9 µM); with HEp-2 [5] it was 10.4 µg/mL (≈ 34.5 µM). For the same compound, the figures for the CC50 at 48 h in [6] and in [7] were 13.3 µg/mL (≈ 44 µM) and 17.9 µg/mL (≈ 59.2 µM), respectively.
`CC(=O)O[C@H]1C=C2C(=O)OC[C@@]2(O)[C@]2(C)[C@@H](OC(C)=O)C[C@H]3C(C)(C)CCC[C@]3(C)[C@@H]12` [DORISENONE A]: the IC50 is 0.21 µg/mL (≈ 0.483 µM) in the data set on L1210 and 0.22 µg/mL (≈ 0.506 µM) with KB.
As to `CC1(C)CCC[C@]2(C)[C@H]3CC[C@@]4(O)C(=O)OC[C@H]4[C@]3(C)CC[C@@H]12`, in the data set on Vero, the CC100 was determined as 50 µg/mL. Further, in the data set on Human alphaherpesvirus 2, the Activity was 25 µg/mL.
`CC1(C)C(=O)CC[C@]2(C)[C@H]3CCc4cocc4[C@]3(C)CC[C@@H]12`: the CC100 was 28 µg/mL in the data set on Vero, 30 µg/mL in the data set with CHO and 40 µg/mL in data set [3]. The result in the data set with Human alphaherpesvirus 2 was inactive.
In the case of `CC(=O)O[C@H]1OC(=O)[C@@H]2CC[C@@H]3[C@@]4(C)CCCC(C)(C)[C@@H]4CC[C@@]3(C=O)[C@H]12`, the CC100 in the data set with Vero is 9 µg/mL; in the data set with HeLa [2] it was 12 µg/mL; in the data set on HEp-2 [8] it was 12 µg/mL; in the data set with CHO, 24 µg/mL; in data set [3], 24 µg/mL. For the same compound, the Activity in the data set on Human alphaherpesvirus 2 was 4.5 µg/mL. Further, the CC50 with HeLa [4] was determined as 6.27 µg/mL (≈ 16.7 µM); in the data set with HEp-2 [5], 4.43 µg/mL (≈ 11.8 µM). The figures for the CC50 at 48 h in data set [6] and in [7] were 4.96 µg/mL (≈ 13.2 µM) and 18.3 µg/mL (≈ 48.6 µM), respectively.
In turn, `CC(=O)O[C@@H]1OC2OC(=O)[C@@H]3CC[C@@H]4[C@@]5(C)CCCC(C)(C)[C@@H]5CC[C@]14[C@H]23` (stereo partly drawn) yielded a CC100 in the data set with Vero greater than 120 µg/mL. This compound also returned an Activity in the data set with Human alphaherpesvirus 2 of 120 µg/mL.
For `C[C@]12C[C@@H](O)C(=O)[C@](C)(CO)[C@@H]1CC[C@@]1(C)c3cocc3CC[C@H]21` [ISOSPONGIADIOL], the IC50 in the data set on Human alphaherpesvirus 1 is 2 µg/mL (≈ 6.02 µM); in the data set on P388, 5 µg/mL (≈ 15 µM).
Regarding `CC(=O)OC[C@@H]1[C@H]2CC[C@@H]3[C@@]4(C)CCCC(C)(C)[C@@H]4CC[C@@]13COC2=O`, the CC100 in the data set with Vero is 28 µg/mL; with HeLa [2] it was 18 µg/mL; in the data set on CHO, 36 µg/mL; in data set [3], 36 µg/mL. This compound also showed an Activity with Human alphaherpesvirus 2 of 14 µg/mL. In addition, the CC50 came out at 16.5 µg/mL (≈ 45.5 µM) in the data set on HeLa [4] and 10.1 µg/mL (≈ 27.7 µM) with HEp-2 [5]. Further, the figures for the CC50 at 48 h in [6] and in [7] were 21.5 µg/mL (≈ 59.4 µM) and 15.9 µg/mL (≈ 43.8 µM), respectively.
For `CC[C@]1(O)C[C@H]2CN(CCc3c([nH]c4ccccc34)[C@@](C(=O)OC)(c3cc4c(cc3OC)N(C=O)[C@H]3[C@@](O)(C(=O)OC)[C@H](OC(C)=O)[C@]5(CC)C=CCN6CC[C@]43[C@@H]65)C2)C1` [VINCRISTINE], the CC50 in the data set on HeLa [4] and in the data set with HEp-2 [5] was 0.05 µg/mL (≈ 0.0606 µM) each time. Moreover, the figures for the CC50 at 48 h in data set [6] and in [7] were 1.15 µg/mL (≈ 1.39 µM) and 0.61 µg/mL (≈ 0.739 µM), respectively.
As for `CC1(C)CCC[C@]2(C)[C@H]3CC[C@H]4C(=O)OC5O[C@@H](O)[C@]3(CC[C@@H]12)[C@H]54` (stereo partly drawn) [DENDRILLOL- 1], the CC100 in the data set on Vero amounted to 8 µg/mL; in the data set on CHO it was 13 µg/mL; in data set [3], 13 µg/mL. The outcome in the data set on Human alphaherpesvirus 2 was inactive. The values for the CC50 in the data set with HeLa [4] and in the data set on HEp-2 [5] were 14.8 µg/mL (≈ 44.3 µM) and 3.46 µg/mL (≈ 10.3 µM), respectively. Further, the CC50 at 48 h was determined as 5.1 µg/mL (≈ 15.2 µM) in data set [6] and 18.9 µg/mL (≈ 56.4 µM) in data set [7].
In the data set on Vero, `CO[C@@H]1OC2OC(=O)[C@@H]3CC[C@@H]4[C@@]5(C)CCCC(C)(C)[C@@H]5CC[C@]14[C@H]23` (stereo partly drawn) returned a CC100 of 120 µg/mL. The same compound came in with an Activity with Human alphaherpesvirus 2 of 60 µg/mL.

Broadly, the IC50 is the concentration needed to halve the response being measured.
